Measured values from ChEMBL document CHEMBL1201862, “PubChem BioAssay data set” (2004).
Active and inactive are the calls of the source.

Key:
[1] = target: T1, Apoptotic protease-activating factor 1 (Homo sapiens, UniProt O14727); assay type: functional
T1 sequence (O14727 whole entry): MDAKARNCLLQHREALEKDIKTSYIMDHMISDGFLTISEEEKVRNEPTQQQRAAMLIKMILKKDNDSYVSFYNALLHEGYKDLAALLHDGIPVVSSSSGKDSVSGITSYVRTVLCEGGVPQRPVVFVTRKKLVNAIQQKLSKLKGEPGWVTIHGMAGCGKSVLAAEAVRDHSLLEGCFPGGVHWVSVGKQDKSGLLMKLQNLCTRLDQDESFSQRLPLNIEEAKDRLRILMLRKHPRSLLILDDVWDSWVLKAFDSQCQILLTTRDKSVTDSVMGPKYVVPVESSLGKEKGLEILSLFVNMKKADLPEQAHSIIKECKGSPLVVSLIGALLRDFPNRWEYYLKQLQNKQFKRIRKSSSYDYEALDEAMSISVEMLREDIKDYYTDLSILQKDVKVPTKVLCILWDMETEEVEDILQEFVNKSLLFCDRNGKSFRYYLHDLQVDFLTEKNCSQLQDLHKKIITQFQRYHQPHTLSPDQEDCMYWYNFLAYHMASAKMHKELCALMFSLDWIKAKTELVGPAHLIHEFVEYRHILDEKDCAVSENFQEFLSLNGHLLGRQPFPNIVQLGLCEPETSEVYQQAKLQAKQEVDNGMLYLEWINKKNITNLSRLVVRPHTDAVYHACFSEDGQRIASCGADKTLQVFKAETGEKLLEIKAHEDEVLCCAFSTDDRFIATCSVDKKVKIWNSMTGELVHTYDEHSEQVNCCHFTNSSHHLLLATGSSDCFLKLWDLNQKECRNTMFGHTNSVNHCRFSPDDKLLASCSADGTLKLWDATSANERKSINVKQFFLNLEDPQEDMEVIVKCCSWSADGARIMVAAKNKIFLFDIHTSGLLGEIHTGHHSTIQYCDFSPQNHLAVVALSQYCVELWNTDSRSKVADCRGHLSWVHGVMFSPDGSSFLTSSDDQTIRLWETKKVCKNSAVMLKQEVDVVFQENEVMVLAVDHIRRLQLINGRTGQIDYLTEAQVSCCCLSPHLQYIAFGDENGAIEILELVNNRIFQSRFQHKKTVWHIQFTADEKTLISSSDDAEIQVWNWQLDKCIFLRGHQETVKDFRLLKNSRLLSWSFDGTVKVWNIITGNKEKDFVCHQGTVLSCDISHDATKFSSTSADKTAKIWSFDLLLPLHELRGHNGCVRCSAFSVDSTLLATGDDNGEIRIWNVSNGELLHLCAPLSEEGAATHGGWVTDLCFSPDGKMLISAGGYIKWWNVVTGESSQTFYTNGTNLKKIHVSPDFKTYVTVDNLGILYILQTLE

Albumin = Albumin (Bos taurus, UniProt P02769); assay: Counterscreen for inhibitors of T-cell receptor (TCR)-CD3 interaction: Fluorescence-based biochemical high throughput dose response assay to identify inhibitors of T-cell receptor (TCR)-CD3 interaction using a TAMRA-labeled BSA probe.; assay type: functional
Genome polyprotein = Genome polyprotein (dengue virus type 2, UniProt P29990); assay: flavivirus cap methylation enzyme inhibition – biochemical, confirmation dose response, primary screen (AID 588689); assay type: functional
[2] = target: Eukaryotic translation initiation factor 4E (Mus musculus, UniProt P63073); assay: blockers of eIF4G binding by eIF4E – biochemical, TR-FRET, dose response (AID 855); assay type: functional;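 further: potency for disrupting eIF4E binding to eIF4GI seen as loss of FRET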
[3] = target: T2, Polyadenylate-binding protein 1 (Homo sapiens, UniProt P11940); assay: MLLE domain peptide-binding blockers, IC50 – biochemical, fluorescence polarization, FITC-PAM2 peptide, dose response (AID 602259); assay type: functional; conditions: read-out: IC50_Mean
ORF 73 = target: T3, ORF 73 (Human herpesvirus 8, UniProt O40947); assay: KSHV LANA DNA-binding disruption – biochemical, fluorescence polarization, cherry-picked samples, dose response (AID 504725); design: species or system Human gammaherpesvirus 8;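 further: fluorescence polarization of a labeled DNA duplex reporting LANA DNA binding; potency is for inhibitors that block LANA binding to the DNA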
T3 sequence (O40947 whole entry): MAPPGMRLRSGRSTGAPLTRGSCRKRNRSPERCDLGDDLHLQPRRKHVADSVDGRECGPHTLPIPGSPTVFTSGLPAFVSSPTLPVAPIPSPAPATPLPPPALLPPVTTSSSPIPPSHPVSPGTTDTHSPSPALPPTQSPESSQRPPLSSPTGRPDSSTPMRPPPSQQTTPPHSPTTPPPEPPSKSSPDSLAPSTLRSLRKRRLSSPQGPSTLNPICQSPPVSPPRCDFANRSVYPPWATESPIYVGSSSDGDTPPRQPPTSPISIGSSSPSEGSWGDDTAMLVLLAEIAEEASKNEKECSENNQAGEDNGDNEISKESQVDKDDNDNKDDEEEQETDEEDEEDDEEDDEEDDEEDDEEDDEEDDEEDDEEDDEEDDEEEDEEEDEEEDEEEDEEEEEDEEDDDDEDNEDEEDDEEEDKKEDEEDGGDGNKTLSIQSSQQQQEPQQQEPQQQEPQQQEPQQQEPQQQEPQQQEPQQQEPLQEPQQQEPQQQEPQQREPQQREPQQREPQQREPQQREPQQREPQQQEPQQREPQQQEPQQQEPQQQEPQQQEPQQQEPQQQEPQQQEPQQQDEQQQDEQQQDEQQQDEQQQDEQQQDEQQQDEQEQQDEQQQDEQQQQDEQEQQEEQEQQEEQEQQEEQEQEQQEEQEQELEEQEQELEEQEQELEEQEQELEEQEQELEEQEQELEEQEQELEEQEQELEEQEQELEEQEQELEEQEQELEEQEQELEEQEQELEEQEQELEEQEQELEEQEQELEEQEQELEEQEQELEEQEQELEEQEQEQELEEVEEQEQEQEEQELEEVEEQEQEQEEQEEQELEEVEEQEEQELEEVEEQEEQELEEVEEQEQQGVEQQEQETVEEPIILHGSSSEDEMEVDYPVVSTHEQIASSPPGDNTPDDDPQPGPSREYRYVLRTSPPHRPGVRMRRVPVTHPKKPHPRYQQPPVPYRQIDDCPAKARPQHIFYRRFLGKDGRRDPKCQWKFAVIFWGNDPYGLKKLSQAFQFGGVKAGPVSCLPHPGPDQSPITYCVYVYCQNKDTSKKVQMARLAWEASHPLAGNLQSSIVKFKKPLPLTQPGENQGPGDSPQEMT

[4] = target: Dual specificity protein phosphatase 3 (Homo sapiens, UniProt P51452); assay: SAR VHR1 Fluorescent Assay for In Vitro dose response studies. [Related pubchem assays (depositor defined):AID1654, AID1661, AID1878, AID1992, AID2004, AID2070, AID2085]; assay type: functional
[5] = target: T4, Tyrosine-protein phosphatase non-receptor type 7 (Homo sapiens, UniProt P35236); assay: redox-active compounds inhibiting HePTP phosphatase – biochemical, fluorescence, mechanism study (AID 2068); assay type: functional
T4 sequence (P35236 whole entry): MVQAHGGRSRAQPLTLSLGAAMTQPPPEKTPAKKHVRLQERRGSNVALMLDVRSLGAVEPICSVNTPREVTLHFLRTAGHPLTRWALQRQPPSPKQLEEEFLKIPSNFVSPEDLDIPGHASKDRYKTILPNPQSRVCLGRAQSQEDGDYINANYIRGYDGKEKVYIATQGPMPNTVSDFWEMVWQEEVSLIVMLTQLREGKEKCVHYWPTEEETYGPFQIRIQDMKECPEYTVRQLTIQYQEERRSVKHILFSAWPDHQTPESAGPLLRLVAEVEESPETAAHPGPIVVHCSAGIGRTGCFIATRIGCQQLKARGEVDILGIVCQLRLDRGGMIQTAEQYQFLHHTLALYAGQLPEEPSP

Salmon testes DNA = assay: acridine orange-DNA binding displacement – biochemical, fluorescence polarization, cherry-picked samples, set 2, artefact control for KSHV LANA DNA-binding inhibitor project, dose response (AID 504727); design: species or system Salmonidae
Large T antigen = Large T antigen (Simian virus 40, UniProt P03070); assay type: functional, Betapolyomavirus macacae;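 further: Confirmatory-stage PubChem screen for compounds that inhibit SV40 T antigen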
[6] = target: T2, Polyadenylate-binding protein 1; assay: MLLE binding blockers, Cy5 peptide tracer – biochemical, fluorescence polarization, Cy5-PAM2 peptide, secondary, miRNA deadenylation inhibitor project, dose response (AID 602260); assay type: functional; conditions: read-out: IC50_Mean
[7] = target: Induced myeloid leukemia cell differentiation protein Mcl-1 (Homo sapiens, UniProt Q07820); assay type: functional
[8] = target: Glutathione-S-transferase (Schistosoma japonicum, UniProt Q26513); assay: GST-antibody interaction or FRET quenching – biochemical, TR-FRET, artefact control for Vif-APOBEC3G degradation inhibitor project, dose response (AID 1117362); assay type: functional
Chain of Glutathione-S-transferase (Q26513 whole entry): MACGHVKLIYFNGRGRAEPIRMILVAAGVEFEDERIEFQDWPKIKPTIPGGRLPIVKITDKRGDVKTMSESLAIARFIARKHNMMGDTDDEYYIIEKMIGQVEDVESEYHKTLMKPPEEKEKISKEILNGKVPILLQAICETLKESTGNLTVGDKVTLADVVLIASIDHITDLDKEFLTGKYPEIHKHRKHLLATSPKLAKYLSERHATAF

T2 sequence (P11940 whole entry, the tested form may be a part): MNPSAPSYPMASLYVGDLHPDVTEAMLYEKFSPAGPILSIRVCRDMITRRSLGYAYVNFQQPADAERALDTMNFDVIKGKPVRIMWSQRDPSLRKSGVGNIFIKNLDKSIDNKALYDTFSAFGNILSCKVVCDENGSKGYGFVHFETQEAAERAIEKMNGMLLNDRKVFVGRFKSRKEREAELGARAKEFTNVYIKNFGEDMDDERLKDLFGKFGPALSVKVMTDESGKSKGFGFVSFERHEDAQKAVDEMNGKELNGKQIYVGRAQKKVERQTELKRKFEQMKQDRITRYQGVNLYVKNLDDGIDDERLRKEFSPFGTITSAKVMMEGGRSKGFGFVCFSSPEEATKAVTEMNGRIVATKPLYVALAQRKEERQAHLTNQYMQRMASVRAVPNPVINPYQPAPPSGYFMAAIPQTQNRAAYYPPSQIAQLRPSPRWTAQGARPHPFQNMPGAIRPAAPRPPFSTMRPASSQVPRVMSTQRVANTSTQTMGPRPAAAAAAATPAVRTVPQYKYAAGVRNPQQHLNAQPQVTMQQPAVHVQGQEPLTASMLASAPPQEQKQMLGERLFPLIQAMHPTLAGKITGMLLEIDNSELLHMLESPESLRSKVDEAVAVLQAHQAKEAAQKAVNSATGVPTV
Chain of Induced myeloid leukemia cell differentiation protein Mcl-1 (Q07820 whole entry): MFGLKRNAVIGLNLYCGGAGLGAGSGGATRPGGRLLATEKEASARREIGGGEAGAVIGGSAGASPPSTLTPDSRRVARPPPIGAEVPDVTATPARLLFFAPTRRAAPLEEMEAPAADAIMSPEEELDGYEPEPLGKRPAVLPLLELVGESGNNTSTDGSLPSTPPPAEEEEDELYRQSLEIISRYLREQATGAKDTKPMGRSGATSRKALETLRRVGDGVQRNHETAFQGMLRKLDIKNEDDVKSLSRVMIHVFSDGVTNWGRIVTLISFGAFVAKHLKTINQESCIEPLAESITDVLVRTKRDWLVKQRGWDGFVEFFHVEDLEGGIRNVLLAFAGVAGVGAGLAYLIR
Chain of Genome polyprotein (P29990 2492-3391 limits assumed): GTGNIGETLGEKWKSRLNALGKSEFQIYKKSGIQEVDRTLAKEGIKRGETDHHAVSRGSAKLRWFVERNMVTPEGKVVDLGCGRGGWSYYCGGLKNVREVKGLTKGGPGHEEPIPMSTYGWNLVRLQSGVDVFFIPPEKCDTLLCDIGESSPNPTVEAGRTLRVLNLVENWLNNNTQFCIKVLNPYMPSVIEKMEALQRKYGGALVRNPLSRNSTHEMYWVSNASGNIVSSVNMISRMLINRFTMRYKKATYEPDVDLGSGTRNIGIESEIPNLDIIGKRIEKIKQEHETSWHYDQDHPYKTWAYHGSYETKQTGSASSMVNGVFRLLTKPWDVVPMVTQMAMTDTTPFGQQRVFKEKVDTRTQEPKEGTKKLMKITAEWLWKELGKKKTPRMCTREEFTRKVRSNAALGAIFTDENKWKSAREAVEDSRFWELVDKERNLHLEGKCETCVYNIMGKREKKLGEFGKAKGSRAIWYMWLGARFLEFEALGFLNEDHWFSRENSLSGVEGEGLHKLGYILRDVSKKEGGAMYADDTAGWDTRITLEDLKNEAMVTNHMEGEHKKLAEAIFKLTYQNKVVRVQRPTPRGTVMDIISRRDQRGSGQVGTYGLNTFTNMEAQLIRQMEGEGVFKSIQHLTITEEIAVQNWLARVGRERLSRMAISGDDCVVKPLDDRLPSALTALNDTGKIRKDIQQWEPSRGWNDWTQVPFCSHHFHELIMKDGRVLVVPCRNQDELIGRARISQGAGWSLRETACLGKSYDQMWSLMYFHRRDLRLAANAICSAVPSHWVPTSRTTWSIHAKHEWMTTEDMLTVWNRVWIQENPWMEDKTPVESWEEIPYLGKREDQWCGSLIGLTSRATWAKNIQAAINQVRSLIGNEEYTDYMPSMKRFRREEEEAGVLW
Chain of Eukaryotic translation initiation factor 4E (P63073 whole entry, the tested form may be a part): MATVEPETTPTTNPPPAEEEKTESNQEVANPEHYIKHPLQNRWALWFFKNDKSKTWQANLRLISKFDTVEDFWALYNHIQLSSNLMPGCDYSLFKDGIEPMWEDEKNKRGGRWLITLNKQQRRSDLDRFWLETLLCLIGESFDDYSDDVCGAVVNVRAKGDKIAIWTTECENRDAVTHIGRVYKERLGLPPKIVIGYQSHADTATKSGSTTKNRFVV
Chain of Albumin (P02769 whole entry): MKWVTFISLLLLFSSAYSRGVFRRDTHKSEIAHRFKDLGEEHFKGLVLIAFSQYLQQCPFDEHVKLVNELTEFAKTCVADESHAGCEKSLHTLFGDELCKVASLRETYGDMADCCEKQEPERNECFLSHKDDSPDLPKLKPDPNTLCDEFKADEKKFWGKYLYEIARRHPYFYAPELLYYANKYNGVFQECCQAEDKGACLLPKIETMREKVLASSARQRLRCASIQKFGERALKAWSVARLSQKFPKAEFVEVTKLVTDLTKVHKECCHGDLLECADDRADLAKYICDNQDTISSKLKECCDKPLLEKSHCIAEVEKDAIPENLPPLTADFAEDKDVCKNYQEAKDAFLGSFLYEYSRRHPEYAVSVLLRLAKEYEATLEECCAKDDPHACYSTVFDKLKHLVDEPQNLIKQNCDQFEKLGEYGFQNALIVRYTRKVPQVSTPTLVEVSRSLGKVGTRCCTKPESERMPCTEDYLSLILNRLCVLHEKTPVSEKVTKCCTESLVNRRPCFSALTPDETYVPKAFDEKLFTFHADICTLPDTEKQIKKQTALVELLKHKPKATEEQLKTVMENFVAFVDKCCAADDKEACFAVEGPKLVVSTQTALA
Chain of Large T antigen (P03070 whole entry): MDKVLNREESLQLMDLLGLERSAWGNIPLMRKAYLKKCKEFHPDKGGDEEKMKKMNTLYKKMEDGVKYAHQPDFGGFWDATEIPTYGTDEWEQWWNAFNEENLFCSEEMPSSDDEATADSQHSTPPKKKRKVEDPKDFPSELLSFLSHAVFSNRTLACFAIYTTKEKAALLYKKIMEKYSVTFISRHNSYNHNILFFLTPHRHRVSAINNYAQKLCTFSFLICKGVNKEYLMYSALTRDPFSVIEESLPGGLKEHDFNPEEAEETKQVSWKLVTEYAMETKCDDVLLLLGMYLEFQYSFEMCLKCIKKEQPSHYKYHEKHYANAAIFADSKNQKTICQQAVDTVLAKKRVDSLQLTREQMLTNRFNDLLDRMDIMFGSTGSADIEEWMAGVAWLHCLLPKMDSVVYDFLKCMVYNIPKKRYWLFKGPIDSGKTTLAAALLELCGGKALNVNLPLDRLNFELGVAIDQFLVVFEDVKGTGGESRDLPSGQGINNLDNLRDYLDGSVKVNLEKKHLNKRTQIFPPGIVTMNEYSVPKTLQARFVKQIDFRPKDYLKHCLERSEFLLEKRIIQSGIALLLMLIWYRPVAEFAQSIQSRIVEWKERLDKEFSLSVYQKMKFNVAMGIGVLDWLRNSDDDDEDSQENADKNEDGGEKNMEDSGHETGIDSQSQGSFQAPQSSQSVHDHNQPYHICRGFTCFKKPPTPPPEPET
Chain of Dual specificity protein phosphatase 3 (P51452 whole entry): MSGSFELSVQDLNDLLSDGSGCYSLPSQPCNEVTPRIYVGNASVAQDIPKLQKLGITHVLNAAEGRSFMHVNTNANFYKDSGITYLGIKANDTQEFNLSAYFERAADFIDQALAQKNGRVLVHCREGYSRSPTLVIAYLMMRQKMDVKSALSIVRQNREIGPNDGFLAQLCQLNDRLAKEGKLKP

COCCNC(=O)Nc1ccc2nc(-c3ccco3)c(-c3ccco3)nc2c1
IC50 [1]: 52 µM (active)
IC50 (Albumin): > 94.1 µM (inactive)
IC50 (Genome polyprotein): 27.9 µM (active)
IC50 [2]: 50 µM (inactive)
IC50 [3]: 39.2 µM (inactive)
AC50 (ORF 73): 23.5 µM (active)
IC50 [4]: 0.492 µM (active)
IC50 [5]: 0.198 µM (active)
AC50 (Salmon testes DNA): 63.1 µM (active)
IC50 (Large T antigen): > 100 µM (active)
IC50 [6]: > 66 µM (inactive)
IC50 [7]: 0.831 µM (active)
IC50 [8]: > 100 µM (active)
